Measurements as given in patent US8575203B2, “Chemical compounds” (Boehringer Ingelheim International GmbH, priority 2010, dated 2013).

These molecules were tested against Recombinant human PDK1 enzyme (aa 52-556) (Homo sapiens (Human), UniProt O15530) (assay: PDK1 kinase assay). Details: in vitro kinase assay, His6-PDK1 (aa 52-556), PDKtide, P33-ATP.
Format: biochemical
Procedure: The activity of the compounds according to the invention on the kinase PDK1 which inhibits the signal transduction pathway is determined in an in vitro kinase assay with recombinantly prepared protein:
Recombinant human PDK1 enzyme (aa 52-556) linked at its N-terminal end to His6 is isolated from baculovirus-infected insect cells. Purified enzyme may be obtained for example from the University of Dundee, Scotland. The following components are combined in a well of a 96-well round-based dish (Greiner bio-one, No. 650101): • 15 μL of compound to be tested in varying concentrations (e.g. starting at 10 μM, and diluted in steps of 1:5) in APT buffer (50 mM Tris/Cl pH 7.5; 0.05% β-mercaptoethanol; 10 mM Mg-acetate; 0.0166% Tween 20; 3.33% DMSO) • 15 μL His6-PDK1 (aa 52-556) 3.33 ng/well) and PDKtide ([…]), synthesised by Pepceuticals Limited, Nottingham, United Kingdom; 25 μM final concentration); His6-PDK1 and PDKtide are together diluted accordingly in assay buffer (50 mM tris pH 7.5, 0.05% β-mercaptoethanol, 10 mM Mg-acetate); PDKtide is present in this mixture as an 83.3 μM solution. These 30 μl are routinely incubated for 30 min at RT. • 20 μL ATP solution (25 μM ATP with 1.0 μCi/well gamma-P33-ATP). The final concentration of Tween 20 is 0.005%.
The reaction is started by adding the ATP solution and the mixture is incubated for 90 min at RT. At the start of the reaction the dishes are shaken gently. The reaction is stopped by the addition of 50 μL/well of 500 mM phosphoric acid (H3PO4) and incubated for about 20 min at RT. The precipitate is transferred by harvesting onto filter plates (96-well microtitre filter plate: UniFilter GF/C; Perkin Elmer; No. 6005174), then washed 6 times with 50 mM H3PO4 and dried at 60° C. Then the plate is stuck down with sealing tape, 25 μL/well of scintillation solution (Microscint 0; Perkin Elmer; No. 6013611) are added and the amount of P33 precipitated is measured using the Wallac Betacounter. The measured data are evaluated using Graphpad Prism software.

Recombinant human PDK1 enzyme (aa 52-556), sequence (O15530 52-556): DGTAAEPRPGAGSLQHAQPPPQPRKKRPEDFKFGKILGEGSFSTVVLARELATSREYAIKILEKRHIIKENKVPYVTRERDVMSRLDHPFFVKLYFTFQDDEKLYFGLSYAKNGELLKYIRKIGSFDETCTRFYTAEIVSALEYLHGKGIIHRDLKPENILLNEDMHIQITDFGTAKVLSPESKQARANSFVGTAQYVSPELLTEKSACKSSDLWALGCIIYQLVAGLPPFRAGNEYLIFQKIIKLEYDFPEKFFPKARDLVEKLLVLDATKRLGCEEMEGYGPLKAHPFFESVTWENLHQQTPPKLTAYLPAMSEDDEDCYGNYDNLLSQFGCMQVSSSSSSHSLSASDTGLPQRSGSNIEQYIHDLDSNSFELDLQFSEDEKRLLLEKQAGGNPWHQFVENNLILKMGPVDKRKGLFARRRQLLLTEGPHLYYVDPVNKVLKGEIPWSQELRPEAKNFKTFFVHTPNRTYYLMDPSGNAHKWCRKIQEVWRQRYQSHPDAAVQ

Row | Compound | IC50 [nM]
1 | CNc1ncnc2ccc(C#CCNC(=O)c3cccn(Cc4ccc(F)c(F)c4)c3=O)c(C)c12 [I-3] | 8
2 | O=C(NCC#Cc1ccc2ncc(NC3CCN(CCO)CC3)nc2c1)c1cncn(Cc2ccc(F)c(F)c2)c1=O [I-9] | 3
3 | CN(C)CCCN(C)c1cnc2ccc(C#CCNC(=O)c3cncn(Cc4ccc(F)c(F)c4)c3=O)cc2n1 [I-13] | 34
4 | CN1CCC(Nc2cnc3ccc(C#CCNC(=O)c4cncn(Cc5ccc(F)c(F)c5)c4=O)cc3n2)CC1 [I-19] | 4
5 | CCN1CCC(Nc2cnc3ccc(C#CCNC(=O)c4cncn(Cc5ccc(F)c(F)c5)c4=O)cc3n2)CC1 [I-22] | 6
6 | O=C(NCC#Cc1ccc2ncc(NC3CCN(C4CC4)CC3)nc2c1)c1cncn(Cc2ccc(F)c(F)c2)c1=O [I-23] | 8
7 | CN1CCC(N(C)c2cnc3ccc(C#CCNC(=O)c4cncn(Cc5ccc(F)c(F)c5)c4=O)cc3n2)CC1 [I-28] | 21
8 | O=C(NCC#Cc1ccc2ncc(NC3CC(N4CCCC4)C3)nc2c1)c1cncn(Cc2ccc(F)c(F)c2)c1=O (stereo not drawn) [I-29] | 41
9 | C[C@H](c1ccc(F)c(F)c1)n1cccc(C(=O)NCC#Cc2ccc3ncc(NC4CCN(C)CC4)nc3c2)c1=O [I-30] | 2
10 | CN1CCC(Nc2cnc3ccc(C#CCNC(=O)c4cccn(Cc5ccc(F)c(F)c5)c4=O)cc3n2)CC1 [I-31] | 5
11 | CN1CCC(Nc2cnc3ccc(C#CCNC(=O)c4cccn([C@H](CO)c5ccccc5)c4=O)cc3n2)CC1 [I-32] | 8
12 | N[C@H]1CC[C@@H](Nc2cnc3ccc(C#CCNC(=O)c4cncn(Cc5ccc(F)c(F)c5)c4=O)cc3n2)CC1 [I-33] | 40
13 | N[C@H]1CC[C@H](Nc2cnc3ccc(C#CCNC(=O)c4cncn(Cc5ccc(F)c(F)c5)c4=O)cc3n2)CC1 [I-34] | 3
14 | COCCN1CCC(Nc2cnc3ccc(C#CCNC(=O)c4cncn(Cc5ccc(F)c(F)c5)c4=O)cc3n2)CC1 [I-37] | 5
15 | CN1CCC(Oc2cnc3ccc(C#CCNC(=O)c4cncn(Cc5ccc(F)c(F)c5)c4=O)cc3n2)CC1 [I-38] | 56
16 | O=C(NCC#Cc1ccc2ncc(N[C@H]3CC[C@H](O)CC3)nc2c1)c1cncn(Cc2ccc(F)c(F)c2)c1=O [I-39] | 21
17 | O=C(NCC#Cc1ccc2ncc(N[C@H]3CC[C@H](N4CCOCC4)CC3)nc2c1)c1cncn(Cc2ccc(F)c(F)c2)c1=O [I-40] | 2
18 | CN1CCC(Nc2cnc3ccc(C#CCNC(=O)c4cccn([C@@H](CO)c5ccc(F)c(F)c5)c4=O)cc3n2)CC1 [I-41] | 3
19 | O=C(NCC#Cc1ccc2ncc(N[C@H]3CC[C@H](N4CCN(CC5CC5)CC4)CC3)nc2c1)c1cncn(Cc2ccc(F)c(F)c2)c1=O [I-42] | 3
20 | CN(C)[C@H]1CC[C@H](Nc2cnc3ccc(C#CCNC(=O)c4cncn(Cc5ccc(F)c(F)c5)c4=O)cc3n2)CC1 [I-43] | 5
21 | CCN1CC[C@@H](Nc2cnc3ccc(C#CCNC(=O)c4cncn(Cc5ccc(F)c(F)c5)c4=O)cc3n2)[C@@H](F)C1 [I-45] | 8

Row | Compound | IC50 [nM]
22 | CCN1CCC(Nc2cnc3ccc(C#CCNC(=O)c4cccn(Cc5ccc(F)c(F)c5)c4=O)cc3n2)CC1 [I-46] | 7
23 | CCN1CC[C@H](Nc2cnc3ccc(C#CCNC(=O)c4cncn(Cc5ccc(F)c(F)c5)c4=O)cc3n2)[C@H](F)C1 [I-47] | 4
24 | COCCN1CCC(Nc2cnc3ccc(C#CCNC(=O)c4cccn([C@@H](CO)c5ccc(F)c(F)c5)c4=O)cc3n2)CC1 [I-48] | 3
25 | COCCN1CCC(Nc2cnc3ccc(C#CCNC(=O)c4cccn(Cc5ccc(F)c(F)c5)c4=O)cc3n2)CC1 [I-49] | 9
26 | CCN1CCC(Nc2cnc3ccc(C#CCNC(=O)c4cccn([C@@H](CO)c5ccc(F)c(F)c5)c4=O)cc3n2)CC1 [I-50] | 1
27 | COCCN1CCC(Nc2cnc3ccc(C#CCNC(=O)c4cccn([C@@H](C)c5ccc(F)c(F)c5)c4=O)cc3n2)CC1 [I-52] | 4
28 | COCCN1CCC(Nc2cnc3ccc(C#CCNC(=O)c4ccnn(Cc5ccc(F)c(F)c5)c4=O)cc3n2)CC1 [I-53] | 8
29 | O=C(NCC#Cc1ccc2ncc(NC3CCN(C4COC4)CC3)nc2c1)c1ccnn(Cc2ccc(F)c(F)c2)c1=O [I-54] | 8
30 | COCCN1CCC(Nc2cnc3ccc(C#CCNC(=O)c4cccn([C@H](CO)c5cccc(F)c5)c4=O)cc3n2)CC1 [I-55] | 4
31 | O=C(NCC#Cc1ccc2ncc(NC3CCN(C4COC4)CC3)nc2c1)c1cncn(Cc2ccc(F)c(F)c2)c1=O [I-56] | 3
32 | O=C(NCC#Cc1ccc2ncc(NC3CCN(C4COC4)CC3)nc2c1)c1cccn(Cc2ccc(F)c(F)c2)c1=O [I-57] | 9
33 | C[C@@H](c1ccc(F)c(F)c1)n1cccc(C(=O)NCC#Cc2ccc3ncc(NC4CCN(C5COC5)CC4)nc3c2)c1=O [I-58] | 8
34 | O=C(NCC#Cc1ccc2ncc(N[C@H]3CC[C@H](N4CCOCC4)CC3)nc2c1)c1cccn([C@H](CO)c2ccccc2)c1=O [I-59] | 5
35 | O=C(NCC#Cc1ccc2ncc(N[C@H]3CC[C@H](N4CCOCC4)CC3)nc2c1)c1ccnn(Cc2ccc(F)c(F)c2)c1=O [I-60] | 7
36 | O=C(NCC#Cc1ccc2ncc(N[C@H]3CC[C@H](N4CCN(CC5CC5)CC4)CC3)nc2c1)c1cccn([C@H](CO)c2cccc(F)c2)c1=O [I-61] | 2
37 | O=C(NCC#Cc1ccc2ncc(N[C@H]3CC[C@H](N4CCN(CC5CC5)CC4)CC3)nc2c1)c1ccnn(Cc2ccc(F)c(F)c2)c1=O [I-62] | 2
38 | O=C(NCC#Cc1ccc2ncc(NC3CCN(C4COC4)CC3)nc2c1)c1cccn([C@H](CO)c2cccc(F)c2)c1=O [I-63] | 4
39 | O=C(NCC#Cc1ccc2ncc(N[C@H]3CC[C@H](N4CCOCC4)CC3)nc2c1)c1cccn([C@H](CO)c2cccc(F)c2)c1=O [I-64] | 5
40 | O=C(NCC#Cc1ccc2ncc(CC3CCNCC3)nc2c1)c1cncn(Cc2ccc(F)c(F)c2)c1=O [I-66] | 654
41 | CN1CCC(Cc2cnc3ccc(C#CCNC(=O)c4cncn(Cc5ccc(F)c(F)c5)c4=O)cc3n2)CC1 [I-67] | 940

More lines, now with the values ahead:

Row | IC50 [nM] | Compound
42 | 37 | COc1ncnc2ccc(C#CCNC(=O)c3cncn(Cc4ccc(F)c(F)c4)c3=O)cc12 [I-2]
43 | 229 | CNc1ncnc2cc(Cl)c(C#CCNC(=O)c3cncn(Cc4ccc(F)c(F)c4)c3=O)cc12 [I-5]
44 | 68 | CNc1ncnc2cc(F)c(C#CCNC(=O)c3c(C)n(C)n(Cc4ccc(F)c(F)c4)c3=O)cc12 [I-6]
45 | 94 | CCOc1ncnc2ccc(C#CCNC(=O)c3cncn(Cc4ccc(F)c(F)c4)c3=O)cc12 [I-7]
46 | 103 | CN(C)CCCOc1ncnc2ccc(C#CCNC(=O)c3cncn(Cc4ccc(F)c(F)c4)c3=O)cc12 [I-8]
47 | 11 | CN(C)CCCNc1cnc2ccc(C#CCNC(=O)c3cncn(Cc4ccc(F)c(F)c4)c3=O)cc2n1 [I-10]
48 | 88 | CN(C)CCN(C)c1cnc2ccc(C#CCNC(=O)c3cncn(Cc4ccc(F)c(F)c4)c3=O)cc2n1 [I-11]
49 | 35 | CN(C)CCNc1cnc2ccc(C#CCNC(=O)c3cncn(Cc4ccc(F)c(F)c4)c3=O)cc2n1 [I-12]
50 | 27 | CNc1cnc2ccc(C#CCNC(=O)c3cncn(Cc4ccc(F)c(F)c4)c3=O)cc2n1 [I-14]
51 | 68 | CN(C)c1cnc2ccc(C#CCNC(=O)c3cncn(Cc4ccc(F)c(F)c4)c3=O)cc2n1 [I-15]
52 | 33 | CN1CCC(Nc2cnc3ccc(C#CCNC(=O)c4cncn(Cc5ccc(F)c(F)c5)c4=O)cc3n2)C1 (stereo not drawn) [I-16]
53 | 95 | CN(C)CCCOc1cnc2ccc(C#CCNC(=O)c3cncn(Cc4ccc(F)c(F)c4)c3=O)cc2n1 [I-17]
54 | 17 | CN(C)CCSc1cnc2ccc(C#CCNC(=O)c3cncn(Cc4ccc(F)c(F)c4)c3=O)cc2n1 [I-18]
55 | 149 | CN1CCCC(Nc2cnc3ccc(C#CCNC(=O)c4cncn(Cc5ccc(F)c(F)c5)c4=O)cc3n2)C1 (stereo not drawn) [I-21]
56 | 117 | CN1CCN(c2cnc3ccc(C#CCNC(=O)c4cncn(Cc5ccc(F)c(F)c5)c4=O)cc3n2)CC1 [I-24]
57 | 42 | CN(C)CC(C)(C)CNc1cnc2ccc(C#CCNC(=O)c3cncn(Cc4ccc(F)c(F)c4)c3=O)cc2n1 [I-25]
58 | 588 | O=C(NCC#Cc1ccc2ncc(NC3CCCCC3)nc2c1)c1cncn(Cc2ccc(F)c(F)c2)c1=O [I-26]
59 | 3 | O=C(NCC#Cc1ccc2ncc(NC3CCNCC3)nc2c1)c1cncn(Cc2ccc(F)c(F)c2)c1=O [I-27]
60 | 21 | CC(C)Nc1cnc2ccc(C#CCNC(=O)c3cncn(Cc4ccc(F)c(F)c4)c3=O)cc2n1 [I-35]
61 | 87 | CN1CCN(Nc2cnc3ccc(C#CCNC(=O)c4cncn(Cc5ccc(F)c(F)c5)c4=O)cc3n2)CC1 [I-36]
62 | 11 | NC1CCC(Nc2cnc3ccc(C#CCNC(=O)c4cncn(Cc5ccc(F)c(F)c5)c4=O)cc3n2)C1 (stereo not drawn) [I-44]
63 | 233 | CC(C)=Cc1cnc2ccc(C#CCNC(=O)c3cncn(Cc4ccc(F)c(F)c4)c3=O)cc2n1 [I-68]
